Structures can show the parent of a compound that is named as a salt.
Target: human GPR40 (Homo sapiens, UniProt O14842)
Assay: FDSS-based intracellular calcium assay (Human GRP40 in vitro assay)
Type: cell-based
Parameters: 3xFLAG; expressed in transfected cells
Conditions: cells expressing GPR40, intracellular Ca2+ response, FDSS reader; read-out: hGPR40 EC50
Procedure: To conduct the fluorescent imaging plate reader (FLIPR)-based calcium flux assay to measure intracellular Ca^2+ response, cells expressing GPR40 are plated on 384 well plates (BD BIOCOAT® #356697) at a density of 20,000 cells/20 μL medium per well in phenol red and serum-free DMEM (GIBCO® #21063-029) and incubated overnight. Using BD kit #s 80500-310 or -301, the cells are incubated with 20 μL per well of Hank's buffered salt solution with 1.7 mM probenecid and Fluo-3 at 37° C. for 30 min. Compounds are dissolved in DMSO and diluted to desired concentrations with assay buffer and added to the cells as 3× solution (20 μL per well). Run fluorescence/luminescence reader FDSS (Hamamatsu) to read intracellular Ca^2+ response.

Sequence of human GPR40 (O14842 whole entry): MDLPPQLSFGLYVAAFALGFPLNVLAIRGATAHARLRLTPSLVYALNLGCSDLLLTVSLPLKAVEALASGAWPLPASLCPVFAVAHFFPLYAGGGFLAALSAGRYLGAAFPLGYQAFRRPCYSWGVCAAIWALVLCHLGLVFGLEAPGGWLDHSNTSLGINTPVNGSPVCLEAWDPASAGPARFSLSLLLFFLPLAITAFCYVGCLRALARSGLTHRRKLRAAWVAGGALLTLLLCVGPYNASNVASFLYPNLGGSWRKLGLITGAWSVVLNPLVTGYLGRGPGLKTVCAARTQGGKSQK

SMILES | EC50 [nM]
COc1ccc(C(C)C)c(N2CCC(Oc3ccc(N4C[C@H](OC)C[C@@H]4CC(=O)O)cc3)CC2)c1 [Example 60, 2-((2R,4R)-1-(4-(1-(2-Isopropyl-5-methoxyphenyl)piperidin-4-yloxy)phenyl)-4-methoxypyrrolidin-2-yl)acetic acid, TFA] | 190
CO[C@@H]1C[C@H](CC(=O)O)N(c2ccc(OC3CCN(c4cc(OC(F)(F)F)ccc4F)CC3)cc2)C1 [Example 63, 2-((2R,4R)-1-(4-(1-(2-Fluoro-5-(trifluoromethoxy)phenyl)piperidin-4-yloxy)phenyl)-4-methoxypyrrolidin-2-yl)acetic acid, TFA] | 2600
CCOc1ccc(F)c(N2CCC(Oc3ccc(N4C[C@H](Oc5ccccc5C#N)C[C@@H]4CC(=O)O)cc3)CC2)c1 [Example 66, 2-((2R,4R)-4-(2-Cyanophenoxy)-1-(4-(1-(5-ethoxy-2-fluorophenyl)piperidin-4-yloxy)phenyl)pyrrolidin-2-yl)acetic acid] | 1400
CCOc1ccc(F)c(N2CCC(Oc3ccc(N4C[C@H](Oc5ccccc5C)C[C@@H]4CC(=O)O)cc3)CC2)c1 [Example 67, 2-((2R,4R)-1-(4-(1-(5-Ethoxy-2-fluorophenyl)piperidin-4-yloxy)phenyl)-4-(o-tolyloxy)pyrrolidin-2-yl)acetic acid] | 950
CCOc1ccc(F)c(N2CCC(Oc3ccc(N4C[C@H](Oc5cccc(C#N)c5)C[C@@H]4CC(=O)O)cc3)CC2)c1 [Example 68, 2-((2R,4R)-4-(3-Cyanophenoxy)-1-(4-(1-(5-ethoxy-2-fluorophenyl)piperidin-4-yloxy)phenyl)pyrrolidin-2-yl)acetic acid] | 310
CCOc1ccc(F)c(N2CCC(Oc3ccc(N4C[C@H](Oc5cccc(Cl)c5)C[C@@H]4CC(=O)O)cc3)CC2)c1 [Example 69, 2-((2R,4R)-4-(3-Chlorophenoxy)-1-(4-(1-(5-ethoxy-2-fluorophenyl)piperidin-4-yloxy)phenyl)pyrrolidin-2-yl)acetic acid] | 160
CCOc1ccc(F)c(N2CCC(Oc3ccc(N4C[C@H](Oc5cccc(C(F)(F)F)c5)C[C@@H]4CC(=O)O)cc3)CC2)c1 [Example 71, 2-((2R,4R)-1-(4-(1-(5-Ethoxy-2-fluorophenyl)piperidin-4-yloxy)phenyl)-4-(3-(trifluoromethyl)phenoxy)pyrrolidin-2-yl)acetic acid] | 250
CCOc1ccc(F)c(N2CCC(Oc3ccc(N4C[C@H](Oc5cccc(C)c5)C[C@@H]4CC(=O)O)cc3)CC2)c1 [Example 72, 2-((2R,4R)-1-(4-(1-(5-Ethoxy-2-fluorophenyl)piperidin-4-yloxy)phenyl)-4-(m-tolyloxy)pyrrolidin-2-yl)acetic acid] | 170
CCOc1ccc(F)c(N2CCC(Oc3ccc(N4C[C@H](Oc5ccc(Cl)cc5)C[C@@H]4CC(=O)O)cc3)CC2)c1 [Example 73, 2-((2R,4R)-4-(4-Chlorophenoxy)-1-(4-(1-(5-ethoxy-2-fluorophenyl)piperidin-4-yloxy)phenyl)pyrrolidin-2-yl)acetic acid] | 1600
CCOc1ccc(F)c(N2CCC(Oc3ccc(N4C[C@H](Oc5ccc(C)cc5)C[C@@H]4CC(=O)O)cc3)CC2)c1 [Example 74, 2-((2R,4R)-1-(4-(1-(5-Ethoxy-2-fluorophenyl)piperidin-4-yloxy)phenyl)-4-(p-tolyloxy)pyrrolidin-2-yl)acetic acid] | 1200
CCOc1ccc(F)c(N2CCC(Oc3ccc(N4C[C@H](Oc5ccccn5)C[C@@H]4CC(=O)O)cc3)CC2)c1 [Example 75, 2-((2R,4R)-1-(4-(1-(5-Ethoxy-2-fluorophenyl)piperidin-4-yloxy)phenyl)-4-(pyridin-2-yloxy)pyrrolidin-2-yl)acetic acid, TFA] | 420
CCOc1ccc(F)c(N2CCC(Oc3ccc(N4C[C@H](Oc5cccnc5)C[C@@H]4CC(=O)O)cc3)CC2)c1 [Example 76, 2-((2R,4R)-1-(4-(1-(5-Ethoxy-2-fluorophenyl)piperidin-4-yloxy)phenyl)-4-(pyridin-3-yloxy)pyrrolidin-2-yl)acetic acid] | 860
CCOc1ccc(F)c(N2CCC(Oc3ccc(N4C[C@H](Oc5cccc(OC(F)(F)F)c5)C[C@@H]4CC(=O)O)cc3)CC2)c1 [Example 77, 2-((2R,4R)-1-(4-(1-(5-Ethoxy-2-fluorophenyl)piperidin-4-yloxy)phenyl)-4-(3-(trifluoromethoxy)phenoxy)pyrrolidin-2-yl)acetic acid] | 140
CCOc1ccc(F)c(N2CCC(Oc3ccc(N4C[C@H](Oc5ncccn5)C[C@@H]4CC(=O)O)cc3)CC2)c1 [Example 78, 2-((2R,4R)-1-(4-(1-(5-Ethoxy-2-fluorophenyl)piperidin-4-yloxy)phenyl)-4-(pyrimidin-2-yloxy)pyrrolidin-2-yl)acetic acid, TFA] | 1600
CCOc1ccc(F)c(N2CCC(Oc3ccc(N4C[C@H](Oc5ccccc5Cl)C[C@@H]4CC(=O)O)cc3)CC2)c1 [Example 79, 2-((2R,4R)-4-(2-Chlorophenoxy)-1-(4-(1-(5-ethoxy-2-fluorophenyl)piperidin-4-yloxy)phenyl)pyrrolidin-2-yl)acetic acid] | 740
CCOc1ccc(F)c(N2CCC(Oc3ccc(N4C[C@H](N(C)S(=O)(=O)c5ccccc5)C[C@@H]4CC(=O)O)cc3)CC2)c1 [Example 80, 2-((2R,4R)-1-(4-(1-(5-Ethoxy-2-fluorophenyl)piperidin-4-yloxy)phenyl)-4-(N-methylphenylsulfonamido)pyrrolidin-2-yl)acetic acid, TFA] | 4600
CCOc1ccc(F)c(N2CCC(Oc3ccc(N4C[C@H](n5ccnn5)C[C@@H]4CC(=O)O)cc3)CC2)c1 [Example 81, 2-((2R,4R)-1-(4-(1-(5-Ethoxy-2-fluorophenyl)piperidin-4-yloxy)phenyl)-4-(1H-1,2,3-triazol-1-yl)pyrrolidin-2-yl)acetic acid] | 1000
COc1ccc(C2CCC2)c(N2CCC(Oc3ccc(N4C[C@H](OC)C[C@@H]4CC(=O)O)cc3)CC2)c1 [Example 82, 2-((2R,4R)-1-(4-((1-(2-Cyclobutyl-5-methoxyphenyl)piperidin-4-yl)oxy)phenyl)-4-methoxypyrrolidin-2-yl)acetic acid, HCl] | 310
COc1cc(N2CCC(Oc3ccc(N4C[C@H](OC)C[C@@H]4CC(=O)O)cc3)CC2)c2nccn2n1 [Example 86, 2-((2R,4R)-4-Methoxy-1-(4-((1-(6-methoxyimidazo[1,2-b]pyridazin-8-yl)piperidin-4-yl)oxy)phenyl)pyrrolidin-2-yl)acetic acid, TFA] | 4700
COc1cc(N2CCC(Oc3ccc(N4C[C@H](OC)C[C@@H]4CC(=O)O)cc3)CC2)c(Cl)cn1 [Example 87, 2-((2R,4R)-1-(4-((1-(5-Chloro-2-methoxypyridin-4-yl)piperidin-4-yl)oxy)phenyl)-4-methoxypyrrolidin-2-yl)acetic acid, TFA] | 350
CCOc1ccc(F)c(N2CCC(Oc3ccc(N4C[C@H](OC)[C@@H](CC)[C@@H]4CC(=O)O)cc3)CC2)c1 [Example 88, 2-((2S,3S,4R)-1-(4-((1-(5-Ethoxy-2-fluorophenyl)piperidin-4-yl)oxy)phenyl)-3-ethyl-4-methoxypyrrolidin-2-yl)acetic acid, TFA] | 250
CCOc1ccc(F)c(N2CCC(Oc3ccc(N4C[C@H](OC)[C@@H](C(C)C)[C@@H]4CC(=O)O)cc3)CC2)c1 [Example 89, 2-((2S,3S,4R)-1-(4-((1-(5-Ethoxy-2-fluorophenyl)piperidin-4-yl)oxy)phenyl)-3-isopropyl-4-methoxypyrrolidin-2-yl)acetic acid, TFA] | 320
CCOc1ccc(F)c(N2CCC(Oc3ccc(N4C[C@H](OC)[C@@H](C5CC5)[C@@H]4CC(=O)O)cc3)CC2)c1 [Example 90, 2-((2S,3S,4R)-3-Cyclopropyl-1-(4-((1-(5-ethoxy-2-fluorophenyl)piperidin-4-yl)oxy)phenyl)-4-methoxypyrrolidin-2-yl)acetic acid, TFA] | 190
CCOc1ccc(F)c(N2CCC(Oc3ccc(N4C[C@H](OC)[C@@H](C5CCC5)[C@@H]4CC(=O)O)cc3)CC2)c1 [Example 92, 2-((2S,3S,4R)-3-Cyclobutyl-1-(4-((1-(5-ethoxy-2-fluorophenyl)piperidin-4-yl)oxy)phenyl)-4-methoxypyrrolidin-2-yl)acetic acid, TFA] | 3700
COc1cc(N2CCC(Oc3ccc(N4C[C@H](OC)C[C@@H]4CC(=O)O)cc3)C(CC#N)C2)c(Cl)cn1 (stereo partly drawn) [Example 93, 2-((2R,4R)-1-(4-(((3,4-trans)-1-(5-Chloro-2-methoxypyridin-4-yl)-3-(cyanomethyl)piperidin-4-yl)oxy)phenyl)-4-methoxypyrrolidin-2-yl)acetic acid, TFA] | 2300
COc1cc(N2CCC(Oc3ccc(N4C[C@H](OC)C[C@@H]4CC(=O)O)cc3)C(Cn3cnnn3)C2)c(Cl)cn1 (stereo partly drawn) [Example 94, 2-((2R,4R)-1-(4-(((3,4-trans)-3-((1H-Tetrazol-1-yl)methyl)-1-(5-chloro-2-methoxypyridin-4-yl)piperidin-4-yl)oxy)phenyl)-4-methoxypyrrolidin-2-yl)acetic acid, TFA] | 3400
CCOc1ccc(F)c(N2CCC(Oc3ccc(N4C[C@H](OC)[C@@H](C)[C@@H]4CC(=O)O)cn3)CC2)c1 [Example 95, 2-((2S,3S,4R)-1-(6-((1-(5-Ethoxy-2-fluorophenyl)piperidin-4-yl)oxy)pyridin-3-yl)-4-methoxy-3-methylpyrrolidin-2-yl)acetic acid, TFA] | 510
COc1cc(N2CCC(Oc3ccc(N4C[C@H](OC)[C@@H](C)[C@@H]4CC(=O)O)cn3)CC2)c(Cl)cn1 [Example 97, 2-((2S,3S,4R)-1-(6-((1-(5-Chloro-2-methoxypyridin-4-yl)piperidin-4-yl)oxy)pyridin-3-yl)-4-methoxy-3-methylpyrrolidin-2-yl)acetic acid] | 110
